In ChEMBL document CHEMBL1201862, “PubChem BioAssay data set” (2004):
Where a name gives a salt, the structure may show the parent alone.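 Protocol summary: plate cells (96-well), add compound at 5 concentrations, incubate 48 h, interpolate endpoints linearly. GI50 is the concentration that inhibits growth by half.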 Calls of active or inactive are those of the source. No stated cut-off is given here; in the data, active = GI50 up to about 1.1 µM and inactive = higher.

Columns and labels:
Test in all cases: NCI anticancer screen, dose series, 48 h
[1] = tested on: UACC-62
[2] = tested on: SK-MEL-2
[3] = tested on: UACC-257
[4] = tested on: SN12C
[5] = tested on: U-251
[6] = tested on: A498
[7] = tested on: RXF 393
[8] = tested on: SW-620
[9] = tested on: TK-10
[10] = tested on: SF-539
[11] = tested on: EKVX
[12] = tested on: HOP-62
[13] = tested on: HOP-92
[14] = tested on: HL-60
[15] = tested on: ACHN
[16] = tested on: NCI-H460
[17] = tested on: NCI-H226
[18] = tested on: K562
[19] = tested on: HT-29
[20] = tested on: KM12

Measured: GI50

CCCc1c(-c2ccccc2)[nH]c2ccccc2c1=O
inactive: [1] 40.5 µM | [2] 27.2 µM | [3] > 100 µM | [4] 89.1 µM | [5] 51.3 µM | [6] 29 µM | [7] > 100 µM | [8] > 100 µM | [9] 32.6 µM | [10] 33.8 µM | [11] 37.6 µM | [12] 34.1 µM | [13] > 100 µM | [14] > 100 µM | [15] 34.8 µM | [16] 29.9 µM | [17] > 100 µM | [18] 20.8 µM | [19] 22.6 µM | [20] 27.7 µM

CC(=O)Oc1ccc(C2COc3cc(OC(C)=O)c(OC(C)=O)cc3C2)cc1 (stereo not drawn)
inactive: [1] 10.1 µM | [2] 14.7 µM | [3] 17.7 µM | [4] 22.4 µM | [5] 13.2 µM | [6] 9.04 µM | [7] 13.6 µM | [8] 17.4 µM | [10] 11.7 µM | [11] 17.3 µM | [12] 25.4 µM | [13] 3.88 µM | [14] 4.11 µM | [16] 17.9 µM | [17] 20.6 µM | [18] 16.3 µM | [19] 49.3 µM | [20] 25 µM

C/C(=C\c1ccccc1)C(=O)CCN1CCOCC1
inactive: [1] 17.6 µM | [2] 27.2 µM | [3] 15.6 µM | [4] 18.2 µM | [5] 18.1 µM | [6] > 56 µM | [7] 19.7 µM | [8] 16.5 µM | [10] 18.3 µM | [11] 27.8 µM | [12] > 100 µM | [13] 20.4 µM | [14] 33.7 µM | [16] 62.1 µM | [17] > 46.1 µM | [18] 30.1 µM | [19] 18.8 µM | [20] 14.9 µM

CN1CCc2[nH]c3ccccc3c2C1
inactive: [1] > 100 µM | [2] > 100 µM | [3] > 100 µM | [4] > 100 µM | [5] > 100 µM | [6] > 100 µM | [7] > 100 µM | [8] > 100 µM | [10] > 100 µM | [11] > 100 µM | [12] > 100 µM | [13] > 100 µM | [14] 87.9 µM | [16] > 100 µM | [17] > 100 µM | [18] > 100 µM | [19] > 100 µM | [20] > 100 µM

C[C@]12CC[C@H]3[C@@H](CC=C4C[C@@H](O)CC[C@@]43C)[C@@H]1C/C(=C\c1ccc([N+](=O)[O-])cc1)[C@@H]2O
inactive: [1] 10.6 µM | [2] 19.8 µM | [3] 16.3 µM | [4] 10.6 µM | [6] 15.1 µM | [7] 9.71 µM | [8] 26.7 µM | [9] 19.4 µM | [10] 17.1 µM | [11] 10.6 µM | [12] 11.7 µM | [13] 21.1 µM | [14] 2.65 µM | [15] 11.6 µM | [16] 16.1 µM | [17] 16.8 µM | [18] 5.68 µM | [19] 5.83 µM | [20] 18.5 µM

CNCCC=C1c2ccccc2CCc2ccccc21 [NORTRIPTYLINE HYDROCHLORIDE]
inactive: [1] 14.8 µM | [2] 15.4 µM | [3] 7.67 µM | [4] 15.4 µM | [5] 14.3 µM | [6] 15.4 µM | [7] 9.35 µM | [8] 17.7 µM | [9] 14.8 µM | [10] 28.5 µM | [11] 15.2 µM | [12] 14.7 µM | [13] 13.7 µM | [14] 16.1 µM | [15] 16.6 µM | [16] 14.8 µM | [17] 22.1 µM | [18] 11.4 µM | [19] 4.69 µM | [20] 12.2 µM
